In brackets after ≈: the same amount, converted by molar mass. Read-outs that look alike come from different tables or passages of the source.
Experiments:
Assay in all cases: in vitro antimicrobial activity (MIC), agar diffusion well method
Type in all cases: cell-based
[1] = system: Bacillus sp. TA (ATCC 27860)
Method: (§1) The in vitro antimicrobial activity of the antibiotic (minimal inhibitory concentration) was determined by the agar diffusion well method. The results expressed in micrograms/ml were as follows: […]

[2] = system: Escherichia coli 94 (ATCC 27856)
Method: as §1

[3] = system: Staphylococcus aureus 82 (ATCC 6538 P); conditions: ATCC6538, BBL Antibiotic Medium "A" Assay Agar
Method: as §1

[4] = system: Klebsiella pneumoniae 369 (ATCC 27858)
Method: as §1

[5] = system: Saccharomyces cerevisiae 90 (ATCC 4226)
Method: as §1

[6] = system: Bacillus sp. E (ATCC 27859); conditions: ATCC27859, BBL Antibiotic Medium "A" Assay Agar
Method: as §1

[7] = system: Sarcina lutea PCI (ATCC 9341); conditions: Micrococcus luteus
Method: as §1

[8] = system: Acinetobacter calcoaceticus PCI-3 (ATCC 10153)
Method: as §1

[9] = system: Proteus vulgaris 101N (ATCC 6380); conditions: ATCC6380, BBL Antibiotic Medium "A" Assay Agar
Method: as §1

[10] = system: Serratia marcescens SM (ATCC 27857)
Method: as §1

[11] = system: Streptomyces cellulosae 097 (ATCC 3313)
Method: as §1

[12] = system: Serratia sp. 101 (ATCC 93)
Method: as §1

[13] = system: Streptococcus faecium (ATCC 8043); conditions: Enterococcus faecium, ATCC8043; BBL Antibiotic Medium "A" Assay Agar
Method: as §1

[14] = system: Candida albicans 155 (NRRL 477)
Method: as §1

[15] = system: Penicillium digitatum 0184 (ATCC 26821); conditions: ATCC26821, BBL Antibiotic Medium "A" Assay Agar
Method: as §1

[16] = system: Bacillus megaterium 164 (ATCC 8011); conditions: Priestia megaterium
Method: as §1

[17] = system: Mycobacterium phlei 78 (ATCC 355); conditions: Mycolicibacterium phlei
Method: as §1

[18] = system: Paecilomyces varioti M16 (ATCC 26820)
Method: as §1

[19] = system: Bacillus subtilis 558 (NRRL 558)
Method: as §1

[20] = system: Pseudomonas aeruginosa 56 (ATCC 8709)
Method: as §1

N[C@@H](CC1CN2C(=O)CC2O1)C(=O)O (some centres unmarked) [2-(3-alanyl)clavam, 3-(7-oxo-4-oxa-1-azabicyclo[3.2.0]hept-3-yl)alanine]
MIC ([1]; ATCC27860, BBL Antibiotic Medium "A" Assay Agar): > 1000 µg/mL
MIC ([1]; ATCC27860, Davis Minimal Agar): 0.03 µg/mL (≈ 0.00015 mM)
MIC ([2]; ATCC27856, BBL Antibiotic Medium "A" Assay Agar): > 1000 µg/mL
MIC ([2]; ATCC27856, Davis Minimal Agar): 1000 µg/mL (≈ 5 mM)
MIC [3]: > 1000 µg/mL
MIC ([4]; ATCC27858, BBL Antibiotic Medium "A" Assay Agar): > 1000 µg/mL
MIC ([4]; ATCC27858, Davis Minimal Agar): 62.5 µg/mL (≈ 0.312 mM)
MIC ([5]; ATCC4226, BBL Antibiotic Medium "A" Assay Agar): > 1000 µg/mL
MIC ([5]; ATCC4226, Davis Minimal Agar): 125 µg/mL (≈ 0.624 mM)
MIC [6]: > 1000 µg/mL
MIC ([7]; ATCC9341, BBL Antibiotic Medium "A" Assay Agar): > 1000 µg/mL
MIC ([7]; ATCC9341, Davis Minimal Agar): > 500 µg/mL
MIC ([8]; ATCC10153, BBL Antibiotic Medium "A" Assay Agar): > 1000 µg/mL
MIC ([8]; ATCC10153, Davis Minimal Agar): > 500 µg/mL
MIC [9]: > 1000 µg/mL
MIC ([10]; ATCC27857, BBL Antibiotic Medium "A" Assay Agar): > 1000 µg/mL
MIC ([10]; ATCC27857, Davis Minimal Agar): > 500 µg/mL
MIC ([11]; ATCC3313, BBL Antibiotic Medium "A" Assay Agar): > 1000 µg/mL
MIC ([11]; ATCC3313, Davis Minimal Agar): > 500 µg/mL
MIC ([12]; ATCC93, BBL Antibiotic Medium "A" Assay Agar): > 1000 µg/mL
MIC ([12]; ATCC93, Davis Minimal Agar): 500 µg/mL (≈ 2.5 mM)
MIC [13]: > 1000 µg/mL
MIC ([14]; NRRL477, BBL Antibiotic Medium "A" Assay Agar): > 1000 µg/mL
MIC ([14]; NRRL477, Davis Minimal Agar): 500 µg/mL (≈ 2.5 mM)
MIC [15]: > 1000 µg/mL
MIC ([16]; ATCC8011, BBL Antibiotic Medium "A" Assay Agar): > 1000 µg/mL
MIC ([16]; ATCC8011, Davis Minimal Agar): > 500 µg/mL
MIC ([17]; ATCC355, BBL Antibiotic Medium "A" Assay Agar): > 1000 µg/mL
MIC ([17]; ATCC355, Davis Minimal Agar): > 500 µg/mL
MIC ([18]; ATCC26820, BBL Antibiotic Medium "A" Assay Agar): 250 µg/mL (≈ 1.25 mM)
MIC ([18]; ATCC26820, Davis Minimal Agar): 15.7 µg/mL (≈ 0.0784 mM)
MIC ([19]; NRRL558, BBL Antibiotic Medium "A" Assay Agar): > 1000 µg/mL
MIC ([19]; NRRL558, Davis Minimal Agar): 0.25 µg/mL (≈ 0.00125 mM)
MIC ([20]; Davis Minimal Agar): > 1000 µg/mL
MIC ([20]; Pseudomonas aeruginosa, ATCC8709, BBL Antibiotic Medium "A" Assay Agar, read-out: MIC): > 1000 µg/mL

— patent US4202819A, “2-(3-Alanyl)clavam antibiotic” (Hoffman-La Roche Inc., priority 1979, dated 1980)
